The nature of data set [1]: Estimation of lung levels after nebulisation. The conditions noted are these: guinea pig, inhaled, nebulisation with submaximal bronchodilator activity, 2 hours after treatment, read-out: retained dose in the target organ (lung). It counts as in vivo.
Data set [2] has as its system acetylcholine (Ach)-induced increase in Penh (airway reactivity). The data set can be described thus: Bronchodilation activity: Ach-induced increase in Penh, barometric plethysmography. It counts as in vivo, guinea pig. Conditions: for bronchoprotective effect: 24 hours. How it is done: Airway reactivity is measured using barometric plethysmography (Buxco, USA). Male guinea pigs (500-600 g) are individually placed in plexiglass chambers. After an acclimatisation period, animals are exposed to nebulised saline for 1 minute to obtain airway baseline reading. This is followed by a 1 minute challenge with nebulised acetylcholine (Ach)-2.5 mg/mL. After 60 minutes, 5 minute nebulisation of vehicle or the compound 1′ in the range 2.5-250 μM are applied and Ach challenge is then repeated after 2, 5, 24, 48 and 72 hours (h). Recording of pressure fluctuations in the chambers are taken for 5 minutes after each nebulisation and analysed to calculate Enhanced Pause (Penh). Airway reactivity is expressed as percentage increase in Penh compared with Penh values from the nebulisation of vehicle. […] After inhalation of […] of compound 1′, effect persists unchanged up to 48 hours (83.0±16.1%), while at 72 hours a residual activity of 34.8±20.9% is present.

The structures appear in SMILES notation.

As a reminder, the inhibition is the drop in the measured response relative to a control, in per cent. Low readings indicate a weak effect, high ones a strong effect.

Consider `O=C(C[N+]12CCC(CC1)[C@@H](OC(=O)N(Cc1cc(F)c(F)c(F)c1)c1cccc(F)c1)C2)c1cccs1.[Cl-]` [compound 1′, (3R)-3-[[[(3-fluorophenyl)[(3,4,5-trifluorophenyl)methyl]amino]carbonyl]oxy]-1-[2-oxo-2-(2-thienyl)ethyl]-1-azoniabicyclo[2.2.2]octane chloride], for which, in data set [1], the concentration at 2 h is approximately 50 ng/g. Also, the bronchoprotective effect in data set [2] (25 μM inhalation) stood at 63.7±15.1%; in data set [2] (50 μM inhalation), 87.1±8.7%. The inhibition in data set [2] (50 μM inhalation, 48 h) is 49.2±23.2%. Moreover, the “maximal effect, inhibition of Ach-induced increase in Penh” value in data set [2] (50 μM nebulised, 2 hours after end of nebulisation) is recorded as 99.6±0.4. Besides, in data set [2] (250 μM inhalation, 48 hours), the “effect (inhibition of Ach-induced increase in Penh)” value came to 83.0±16.1%. This compound also showed a residual activity in data set [2] (250 μM inhalation, 72 hours) of 34.8±20.9%. Further, in data set [2] (inhalation of lower concentrations (below 25 μM)), the duration of effect is listed as not above 5 h.

These data come from US20090180969A1, “PHARMACEUTICAL FORMULATION COMPRISING AN ANTICHOLINERGIC DRUG” (Chiesi Farmaceutici S.p.A., priority 2008, published 2009).
